# From PubChem BioAssay (NCI)
#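 Results reflect a 48-hour exposure of cells in 96-well plates to compound at five concentrations. At the GI50, growth is halved. The concentration for full growth arrest is given as TGI.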
# What was measured:
# Test in all cases: NCI anticancer screen, dose series, 48 h
# [1] = system: RXF 393 renal
# [2] = system: NCI-H522 lung
# [3] = system: SF-268 CNS
# [4] = system: K-562 leukemia
# [5] = system: SK-MEL-2 melanoma
# [6] = system: CCRF-CEM leukemia
# [7] = system: LOX IMVI melanoma
# [8] = system: PC-3 prostate
# [9] = system: OVCAR-3 ovarian
# [10] = system: MDA-MB-231 breast
# [11] = system: SK-MEL-5 melanoma
# [12] = system: OVCAR-4 ovarian
# [13] = system: DU-145 prostate
# [14] = system: 786-0 renal
# [15] = system: SNB-19 CNS
# [16] = system: NCI/ADR-RES ovarian
# [17] = system: SNB-75 CNS
# [18] = system: MALME-3M melanoma
# [19] = system: HL-60(TB) leukemia
# [20] = system: TK-10 renal
# [21] = system: HCT-116 colon
# [22] = system: SR leukemia
# [23] = system: SN12C renal
# [24] = system: BT-549 breast
# [25] = system: OVCAR-5 ovarian
# [26] = system: SF-539 CNS
# [27] = system: OVCAR-8 ovarian
# [28] = system: HS 578T breast
# [29] = system: IGROV1 ovarian
# [30] = system: A549 NSCLC
# [31] = system: M14 melanoma
# [32] = system: KM12 colon
# [33] = system: HOP-62 NSCLC
# [34] = system: HOP-92 NSCLC
# [35] = system: NCI-H23 lung
# [36] = system: MDA-MB-435
# [37] = system: HCT-15 colon
# [38] = system: SW-620 colon
# [39] = system: CAKI-1 renal
# [40] = system: ACHN renal
# [41] = system: A498 renal
# [42] = system: MOLT-4 leukemia
# [43] = system: UO-31 renal
# [44] = system: HT29 colon
# [45] = system: U251 CNS
# [46] = system: SK-OV-3 ovarian
# [47] = system: T-47D breast
# [48] = system: NCI-H460 lung
# [49] = system: NCI-H226 lung
# [50] = system: EKVX NSCLC
# [51] = system: SK-MEL-28 melanoma
# [52] = system: UACC-257 melanoma
# [53] = system: HCC-2998 colon
# [54] = system: COLO 205 colon
# [55] = system: RPMI-8226 leukemia
# [56] = system: UACC-62 melanoma
# [57] = system: MCF7 breast
# [58] = system: SF-295 CNS
smiles,measurement,setting,value
CCc1nc(N)nc(N)c1-c1ccc([N+](=O)[O-])c(Cl)c1,TGI,[1],> 100 µM
same,TGI,[2],> 52.9 µM
same,TGI,[3],> 100 µM
same,TGI,[4],> 100 µM
same,TGI,[5],> 100 µM
same,TGI,[6],> 100 µM
same,TGI,[7],> 100 µM
same,TGI,[8],> 100 µM
same,TGI,[9],> 100 µM
same,TGI,[10],> 100 µM
same,TGI,[11],> 82.5 µM
same,TGI,[12],> 100 µM
same,TGI,[13],> 100 µM
same,TGI,[14],> 100 µM
same,TGI,[15],> 100 µM
same,TGI,[16],> 100 µM
same,TGI,[17],> 92.5 µM
same,TGI,[18],> 100 µM
same,TGI,[19],> 100 µM
same,TGI,[20],> 100 µM
same,TGI,[21],> 100 µM
same,TGI,[22],> 100 µM
same,TGI,[23],> 100 µM
same,TGI,[24],> 100 µM
same,TGI,[25],> 100 µM
same,TGI,[26],> 94.4 µM
same,TGI,[27],> 100 µM
same,TGI,[28],> 100 µM
same,TGI,[29],> 100 µM
same,TGI,[30],> 80.8 µM
same,TGI,[31],> 100 µM
same,TGI,[32],> 100 µM
same,TGI,[33],> 100 µM
same,TGI,[34],> 100 µM
same,TGI,[35],> 100 µM
same,TGI,[36],> 100 µM
same,TGI,[37],> 100 µM
same,TGI,[38],> 100 µM
same,TGI,[39],> 100 µM
same,TGI,[40],> 100 µM
same,TGI,[41],> 100 µM
same,TGI,[42],> 100 µM
same,TGI,[43],> 100 µM
same,TGI,[44],> 100 µM
same,TGI,[45],> 100 µM
same,TGI,[46],> 100 µM
same,TGI,[47],> 100 µM
same,TGI,[48],> 100 µM
same,TGI,[49],> 100 µM
same,TGI,[50],> 100 µM
same,TGI,[51],> 100 µM
same,TGI,[52],> 100 µM
same,TGI,[53],> 100 µM
same,TGI,[54],> 100 µM
same,TGI,[55],> 100 µM
same,TGI,[56],> 100 µM
same,TGI,[57],> 100 µM
same,TGI,[58],> 100 µM
C#Cc1cccc(Nc2ncnc3ccc(-c4cncc(NS(C)(=O)=O)c4)cc23)c1,GI50,[1],1.68 µM
same,TGI,[1],4.84 µM
same,GI50,[2],1.06 µM
same,TGI,[2],3.28 µM
same,GI50,[3],1.92 µM
same,TGI,[3],11.5 µM
same,GI50,[4],3.79 µM
same,TGI,[4],19.5 µM
same,GI50,[5],0.845 µM
same,TGI,[5],2.2 µM
same,GI50,[6],0.82 µM
same,TGI,[6],7.31 µM
same,GI50,[7],1.26 µM
same,TGI,[7],2.86 µM
same,GI50,[8],2.21 µM
same,TGI,[8],9.95 µM
same,GI50,[9],1.15 µM
same,TGI,[9],3.25 µM
same,GI50,[10],2.2 µM
same,TGI,[10],8.06 µM
same,GI50,[11],1.63 µM
same,TGI,[11],3.06 µM
same,GI50,[12],3.59 µM
same,TGI,[12],75.9 µM
same,GI50,[13],2.07 µM
same,TGI,[13],12.8 µM
same,GI50,[14],1.77 µM
same,TGI,[14],6.74 µM
same,GI50,[15],1.98 µM
same,TGI,[15],16.2 µM
same,GI50,[16],21.7 µM
same,TGI,[16],> 100 µM
same,GI50,[17],0.524 µM
same,TGI,[17],5.09 µM
same,GI50,[18],1.11 µM
same,TGI,[18],9.13 µM
same,GI50,[19],1.87 µM
same,TGI,[19],6.83 µM
same,GI50,[21],1.45 µM
same,TGI,[21],3.29 µM
same,GI50,[22],1.37 µM
same,TGI,[22],5.74 µM
same,GI50,[23],2.51 µM
same,TGI,[23],19.7 µM
same,GI50,[24],1.07 µM
same,TGI,[24],4.55 µM
same,GI50,[25],1.07 µM
same,TGI,[25],16.5 µM
same,GI50,[26],1.46 µM
same,TGI,[26],4.96 µM
same,GI50,[27],3.7 µM
same,TGI,[27],28.1 µM
same,GI50,[28],1.1 µM
same,TGI,[28],4.65 µM
same,GI50,[29],0.309 µM
same,TGI,[29],1.68 µM
same,GI50,[30],3.63 µM
same,TGI,[30],14.9 µM
same,GI50,[31],2.33 µM
same,TGI,[31],11.2 µM
same,GI50,[32],2.33 µM
same,TGI,[32],6.52 µM
same,GI50,[33],1.84 µM
same,TGI,[33],14.1 µM
same,GI50,[34],0.447 µM
same,TGI,[34],3.73 µM
same,GI50,[35],2.36 µM
same,TGI,[35],10.8 µM
same,GI50,[36],2.94 µM
same,TGI,[36],13.7 µM
same,GI50,[37],3.47 µM
same,TGI,[37],16.7 µM
same,GI50,[38],2.36 µM
same,TGI,[38],6.31 µM
same,GI50,[40],0.979 µM
same,TGI,[40],49.6 µM
same,GI50,[41],0.372 µM
same,TGI,[41],2.04 µM
same,GI50,[42],1.41 µM
same,TGI,[42],4.45 µM
same,GI50,[43],1.53 µM
same,TGI,[43],14.5 µM
same,GI50,[44],1.86 µM
same,TGI,[44],6.28 µM
same,GI50,[45],2.5 µM
same,TGI,[45],10.3 µM
same,GI50,[46],1.89 µM
same,TGI,[46],5.71 µM
same,GI50,[47],0.209 µM
same,TGI,[47],2.77 µM
same,GI50,[48],3.46 µM
same,TGI,[48],13.6 µM
same,GI50,[49],2.99 µM
same,TGI,[49],16.8 µM
same,GI50,[50],1.12 µM
same,TGI,[50],4.6 µM
same,GI50,[51],1.47 µM
same,TGI,[51],14.1 µM
same,GI50,[52],3.7 µM
same,TGI,[52],16.2 µM
same,GI50,[53],2.67 µM
same,TGI,[53],11.8 µM
same,GI50,[54],1.68 µM
same,TGI,[54],3.94 µM
same,GI50,[55],2.18 µM
same,TGI,[55],4.93 µM
same,GI50,[56],1.66 µM
same,TGI,[56],5.69 µM
same,GI50,[57],1.5 µM
same,TGI,[57],8.71 µM
same,GI50,[58],2.47 µM
same,TGI,[58],10.5 µM
